Measurements published in publication PMC10924156, “Design, Preclinical Evaluation, and Clinical Translation of ^68Ga-FAPI-LM3, a Heterobivalent Molecule for PET Imaging of Nasopharyngeal Carcinoma” (Journal of Nuclear Medicine, 2024).
Positions of bridges follow the written chain, without caps; N, C: chain ends. Non-standard residues stand in square brackets, D forms with d. Residues, ends and D or L forms follow the SMILES beside them. *: point of attachment. DOTA = O=C(O)CN1CCN(CC(=O)O)CCN(CC(=O)*)CCN(CC(=O)O)CC1; dPhe(4-NHCONH2) = NC(=O)Nc1ccc(C[C@@H](N)C(=O)O)cc1; Phe(4-Cl) = N[C@@H](Cc1ccc(Cl)cc1)C(=O)O

Key:
Small-animal PET imaging = settings: BALB/c nude, mouse, tumor (HT-1080-FAP plus HT-1080-SSTR2 xenograft), iv, 7.4 MBq, total radioactivity, tumor uptake (PET), i.v. approx 7.4 MBq, 3 mice/group
Experimental: (§1) Tumor-bearing mice (3/group) were intravenously injected with approximately 7.4 MBq of ^68Ga-FAPI-LM3, ^68Ga-FAPI-46, or ^68Ga-DOTA-LM3. Subsequent static PET scans were obtained at intervals of 0.5, 1, 2, and 4 h after injection using an Inveon small-animal PET scanner (Siemens). In the blocking experiment, approximately 60 nmol of the unlabeled precursor (FAPI-46, DOTA-LM3, or FAPI-46 plus DOTA-LM3) were simultaneously injected with ^68Ga-FAPI-LM3. The PET images were reconstructed iteratively using 3-dimensional OpMAP 256 (PET reconstruction protocol [.pPetRcn]; Siemens Healthineers AG) and converted to percentage injected dose per gram of tissue (%ID/g) by delineating the regions of interest. For the biodistribution studies, approximately 1.48 MBq of ^68Ga-FAPI-LM3, ^68Ga-FAPI-46, ^68Ga-DOTA-LM3, or ^68Ga-FAPI-LM3 with unlabeled precursor were injected into tumor-bearing mice (3/group), and different groups of mice were euthanized at the scheduled time points after injection.

[1] = Ex vivo biodistribution study; settings: BALB/c nude, mouse, tumor (HT-1080-FAP plus HT-1080-SSTR2 xenograft), 1.48 MBq, total radioactivity
Experimental: as §1

[2] = parameters: method as in 2 sources, ref 21 = [21]; PMID 30072500; doi:10.2967/jnumed.118.215913; 21. Giesel FL Kratochwil C Lindner T . 68 Ga-FAPI PET/CT: biodistribution and preliminary dosimetry estimate of 2 DOTA-containing FAP-targeting agents in patients with various cancers . J Nucl Med. 20 ||| ref 15 = [15]; PMID 33579804; doi:10.2967/jnumed.120.253096; 15. Zhu W Cheng Y Jia R . A prospective, randomized, double-blind study to evaluate the safety, biodistribution, and dosimetry of 68 Ga-NODAGA-LM3 and 68 Ga-DOTA-LM3 in patients with well-differentiat; settings: in vivo; cited from earlier work

C[C@@H](O)[C@@H]1NC(=O)[C@H](CCCCN)NC(=O)[C@@H](Cc2ccc(NC(N)=O)cc2)NC(=O)[C@H](Cc2ccc(O)cc2)NC(=O)[C@H](NC(=O)[C@H](Cc2ccc(Cl)cc2)NC(=O)CN2CCN(CC(=O)O)CCN(CC(=O)O)CCN(CC(=O)O)CC2)CSSC[C@@H](C(=O)N[C@H](Cc2ccc(O)cc2)C(N)=O)NC1=O [^68Ga-DOTA-LM3, metal not drawn, reference compound] ({DOTA}-[Phe(4-Cl)][dC]Y[dPhe(4-NHCONH2)]KTC[dY]-NH2; disulfide 2-7)
tissue uptake at 1 h (Small-animal PET imaging; 1 h after injection): 5.93 ± 0.5 %ID/g | tissue uptake at 4 h (Small-animal PET imaging; 4 h after injection): 4.46 ± 0.57 %ID/g | tissue uptake at 1 h [1]: 7.88 ± 1.1 %ID/g | effective dose [2]: 2.50 × 10^−2 mSv/MBq
